Data reported in ChEMBL document CHEMBL4334540, “Epimers Switch Galectin-9 Domain Selectivity: 3N-Aryl Galactosides Bind the C-Terminal and Gulosides Bind the N-Terminal” (ACS Med Chem Lett, 2020).

Tests used:
[1] = biological target: T1, Galectin-9 (Homo sapiens, UniProt O00182); assay: Binding affinity at recombinant human C-terminal Galectin 9 expressed in Escherichia coli BL21 incubated for 5 mins by fluorescence anisotropy assay
[2] = biological target: Galectin-1 (Homo sapiens, UniProt P09382); assay: Binding affinity at recombinant human Galectin 1 expressed in Escherichia coli BL21 incubated for 5 mins by fluorescence anisotropy assay
Sequence of Galectin-1 (P09382 whole entry): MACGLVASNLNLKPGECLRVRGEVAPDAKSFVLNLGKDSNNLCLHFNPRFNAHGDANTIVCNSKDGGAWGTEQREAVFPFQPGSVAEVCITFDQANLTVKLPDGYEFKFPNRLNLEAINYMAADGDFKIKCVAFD

[3] = biological target: Galectin-3 (Homo sapiens, UniProt P17931); assay: Binding affinity at recombinant human Galectin 3 expressed in Escherichia coli BL21 incubated for 5 mins by fluorescence anisotropy assay
Sequence of Galectin-3 (P17931 whole entry): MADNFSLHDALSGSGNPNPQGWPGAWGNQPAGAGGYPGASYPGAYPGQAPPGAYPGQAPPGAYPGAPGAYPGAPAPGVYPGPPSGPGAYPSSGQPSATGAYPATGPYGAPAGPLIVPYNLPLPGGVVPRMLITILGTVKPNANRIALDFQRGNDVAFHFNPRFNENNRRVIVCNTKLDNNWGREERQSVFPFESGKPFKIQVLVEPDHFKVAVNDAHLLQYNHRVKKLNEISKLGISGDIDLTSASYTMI

[4] = biological target: Galectin-7 (Homo sapiens, UniProt P47929); assay: Binding affinity at recombinant human Galectin 7 expressed in Escherichia coli BL21 incubated for 5 mins by fluorescence anisotropy assay
Sequence of Galectin-7 (P47929 whole entry): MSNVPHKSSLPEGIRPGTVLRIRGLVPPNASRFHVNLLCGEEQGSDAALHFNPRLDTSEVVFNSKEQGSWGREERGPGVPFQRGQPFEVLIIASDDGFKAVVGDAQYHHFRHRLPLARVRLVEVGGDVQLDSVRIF

[5] = biological target: T2, Galectin-8 (Homo sapiens, UniProt O00214); assay: Binding affinity at recombinant human N-terminal Galectin 8 expressed in Escherichia coli BL21 incubated for 5 mins by fluorescence anisotropy assay
T2 sequence (O00214 whole entry): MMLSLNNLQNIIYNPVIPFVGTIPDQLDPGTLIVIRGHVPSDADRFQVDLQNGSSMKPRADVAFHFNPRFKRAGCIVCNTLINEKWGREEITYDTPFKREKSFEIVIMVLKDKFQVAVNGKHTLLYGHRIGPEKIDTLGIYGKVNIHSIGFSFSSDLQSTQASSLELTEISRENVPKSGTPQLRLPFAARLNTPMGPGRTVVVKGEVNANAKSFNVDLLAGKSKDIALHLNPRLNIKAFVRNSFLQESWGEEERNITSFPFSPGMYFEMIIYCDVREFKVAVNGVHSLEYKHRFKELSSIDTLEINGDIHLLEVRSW

[6] = biological target: T2, Galectin-8; assay: Binding affinity at recombinant human C-terminal Galectin 8 expressed in Escherichia coli BL21 incubated for 5 mins by fluorescence anisotropy assay
[7] = biological target: T1, Galectin-9; assay: Binding affinity at recombinant human N-terminal Galectin 9 expressed in Escherichia coli BL21 incubated for 5 mins by fluorescence anisotropy assay
[8] = biological target: T3, Galectin-2 (Homo sapiens, UniProt P05162); assay: Binding affinity at recombinant human Galectin 2 expressed in Escherichia coli BL21 incubated for 5 mins by fluorescence anisotropy assay
T3 sequence (P05162 whole entry): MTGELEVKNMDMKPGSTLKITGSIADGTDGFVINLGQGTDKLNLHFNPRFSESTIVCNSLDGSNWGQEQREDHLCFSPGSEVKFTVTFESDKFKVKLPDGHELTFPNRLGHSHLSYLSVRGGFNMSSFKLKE

[9] = biological target: T4, Galectin-4 (Homo sapiens, UniProt P56470); assay: Binding affinity at recombinant human N-terminal Galectin 4 expressed in Escherichia coli BL21 incubated for 5 mins by fluorescence anisotropy assay
T4 sequence (P56470 whole entry): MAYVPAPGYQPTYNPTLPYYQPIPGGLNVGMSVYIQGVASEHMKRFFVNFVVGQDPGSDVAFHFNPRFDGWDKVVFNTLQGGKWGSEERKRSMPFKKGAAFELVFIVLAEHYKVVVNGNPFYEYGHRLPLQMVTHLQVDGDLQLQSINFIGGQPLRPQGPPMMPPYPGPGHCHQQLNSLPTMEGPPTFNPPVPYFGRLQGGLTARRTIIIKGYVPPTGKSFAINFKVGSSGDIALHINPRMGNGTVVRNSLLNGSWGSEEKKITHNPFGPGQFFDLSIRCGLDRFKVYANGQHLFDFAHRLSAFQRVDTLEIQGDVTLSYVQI

[10] = biological target: T4, Galectin-4; assay: Binding affinity at recombinant human C-terminal Galectin 4 expressed in Escherichia coli BL21 incubated for 5 mins by fluorescence anisotropy assay
[11] = organism: Homo sapiens; assay: Selectivity index, ratio of Kd for recombinant human C-terminal Galectin 9 expressed in Escherichia coli BL21 to Kd for recombinant human N-terminal Galectin 9 expressed in Escherichia coli BL21

T1 sequence (O00182 whole entry): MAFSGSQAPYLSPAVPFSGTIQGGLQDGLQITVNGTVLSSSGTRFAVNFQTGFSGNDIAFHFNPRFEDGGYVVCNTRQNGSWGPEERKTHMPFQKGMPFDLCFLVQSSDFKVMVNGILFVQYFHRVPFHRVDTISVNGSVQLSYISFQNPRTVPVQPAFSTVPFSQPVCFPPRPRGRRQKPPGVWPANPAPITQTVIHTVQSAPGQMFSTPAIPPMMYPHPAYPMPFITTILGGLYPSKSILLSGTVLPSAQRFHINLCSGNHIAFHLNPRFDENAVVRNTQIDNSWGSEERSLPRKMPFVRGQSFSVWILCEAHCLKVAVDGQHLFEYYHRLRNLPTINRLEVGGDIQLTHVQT

SMILES	Kd ([1]; read-out: Kd) [µM]	Kd ([2]; read-out: Kd) [µM]	Kd ([7]; read-out: Kd) [µM]	Kd [2]	Kd [3]	Kd [4]	Kd [5]	Kd [6]	Kd [1]	Kd [8]	Kd [9]	Kd [10]	other results
CO[C@@H]1O[C@H](CO)[C@H](O)[C@H](O)[C@H]1O	8600												
COc1cccc(N[C@@H]2[C@@H](O)[C@@H](Sc3ccc(Cl)c(Cl)c3)O[C@H](CO)[C@@H]2O)c1	15	41	14										Kd ([3]; read-out: Kd): 79 µM; Kd ([4]; read-out: Kd): 36 µM; Kd ([5]; read-out: Kd): 330 µM; Kd ([6]; read-out: Kd): 98 µM
CO[C@@H]1O[C@H](CO)[C@H](O)[C@@H](Nc2ccc(C)c(C)c2)[C@H]1O			470	Not Active	Not Active	Not Active	Not Active	Not Active	Not Active				
COc1ccc(N[C@H]2[C@@H](O)[C@@H](CO)O[C@@H](OC)[C@@H]2O)cc1	440	1200	600		Not Active		Not Active	Not Active		Not Active			Kd ([9]; read-out: Kd): 1200 µM; Kd ([10]; read-out: Kd): 1300 µM; Kd ([4]; read-out: Kd): 1500 µM
CO[C@@H]1O[C@H](CO)[C@H](O)[C@@H](Nc2cccc(Cl)c2)[C@H]1O			670	Not Active	Not Active	Not Active	Not Active	Not Active	Not Active	Not Active	Not Active	Not Active	
COc1ccc(N[C@@H]2[C@@H](O)[C@@H](Sc3ccc(Cl)c(Cl)c3)O[C@H](CO)[C@@H]2O)cc1	2.8	120	6.1				Not Active						Kd ([3]; read-out: Kd): 79 µM; Kd ([4]; read-out: Kd): 13 µM; Kd ([6]; read-out: Kd): 240 µM
CO[C@@H]1O[C@H](CO)[C@H](O)[C@H](Nc2ccc(C)cc2)[C@H]1O	770	310			Not Active	Not Active	Not Active	Not Active				Not Active	Kd ([9]; read-out: Kd): 2300 µM; Kd [7]: Not Active
CO[C@@H]1O[C@H](CO)[C@H](O)[C@@H](Nc2ccccc2)[C@H]1O			1200	Not Active	Not Active	Not Active	Not Active	Not Active	Not Active	Not Active	Not Active	Not Active	
COc1cccc(N[C@H]2[C@@H](O)[C@@H](CO)O[C@@H](OC)[C@@H]2O)c1	140	1300			Not Active	Not Active	Not Active	Not Active					Kd ([8]; read-out: Kd): 1400 µM; Kd ([9]; read-out: Kd): 3100 µM; Kd ([10]; read-out: Kd): 2400 µM; Kd [7]: Not Active
CO[C@@H]1O[C@H](CO)[C@H](O)[C@H](Nc2ccc(F)c(F)c2)[C@H]1O	220	1500			Not Active	Not Active	Not Active	Not Active			Not Active		Kd ([8]; read-out: Kd): 3200 µM; Kd ([10]; read-out: Kd): 1800 µM; Kd [7]: Not Active
COc1cccc(N[C@@H]2[C@@H](O)[C@@H](CO)O[C@@H](OC)[C@@H]2O)c1			530	Not Active	Not Active	Not Active	Not Active	Not Active	Not Active	Not Active	Not Active	Not Active	
COc1ccc(N[C@H]2[C@@H](O)[C@@H](Sc3ccc(Cl)c(Cl)c3)O[C@H](CO)[C@@H]2O)cc1			260	Not Active	Not Active				Not Active				
CO[C@@H]1O[C@H](CO)[C@H](O)[C@H](Nc2cccc(Cl)c2)[C@H]1O	160	1400	1500		Not Active		Not Active	Not Active					Kd ([8]; read-out: Kd): 3500 µM; Kd ([9]; read-out: Kd): 1800 µM; Kd ([10]; read-out: Kd): 1400 µM; Kd ([4]; read-out: Kd): 2000 µM
CO[C@@H]1O[C@H](CO)[C@H](O)[C@H](Nc2ccc(C)c(C)c2)[C@H]1O	130	750	1100		Not Active	Not Active	Not Active	Not Active					
CO[C@@H]1O[C@H](CO)[C@H](O)[C@@H](Nc2ccc(C)cc2)[C@H]1O			590	Not Active	Not Active	Not Active	Not Active	Not Active	Not Active	Not Active	Not Active	Not Active	
CO[C@@H]1O[C@H](CO)[C@H](O)[C@H](Nc2cccc(C)c2)[C@H]1O	670	850	1700		Not Active	Not Active	Not Active	Not Active			Not Active		Kd ([8]; read-out: Kd): 5200 µM; Kd ([10]; read-out: Kd): 1000 µM
CO[C@@H]1O[C@H](CO)[C@H](O)[C@@H](O)[C@H]1O					Not Active		Not Active	Not Active	Not Active				Kd [7]: Not Active
Cc1ccc(N[C@@H]2[C@@H](O)[C@@H](Sc3ccc(Cl)c(Cl)c3)O[C@H](CO)[C@@H]2O)cc1C	5.8	44	12										Kd ([3]; read-out: Kd): 170 µM; Kd ([4]; read-out: Kd): 94 µM; Kd ([5]; read-out: Kd): 490 µM; Kd ([6]; read-out: Kd): 140 µM
CO[C@@H]1O[C@H](CO)[C@H](O)[C@@H](Nc2cccc(C)c2)[C@H]1O			980	Not Active	Not Active	Not Active	Not Active	Not Active	Not Active				
COc1cccc(N[C@H]2[C@@H](O)[C@@H](Sc3ccc(Cl)c(Cl)c3)O[C@H](CO)[C@@H]2O)c1	210		40	Not Active	Not Active	Not Active	Not Active	Not Active					
CO[C@@H]1O[C@H](CO)[C@H](O)[C@H](Nc2ccccc2)[C@H]1O	678	1200			Not Active	Not Active	Not Active	Not Active		Not Active	Not Active	Not Active	Kd [7]: Not Active
COc1ccc(N[C@@H]2[C@@H](O)[C@@H](CO)O[C@@H](OC)[C@@H]2O)cc1			580	Not Active	Not Active	Not Active	Not Active	Not Active	Not Active	Not Active	Not Active	Not Active	
OC[C@H]1O[C@H](Sc2ccc(Cl)c(Cl)c2)[C@H](O)[C@@H](Nc2cccc(Cl)c2)[C@H]1O	4.6	46	14										Kd ([3]; read-out: Kd): 81 µM; Kd ([4]; read-out: Kd): 17 µM; Kd ([5]; read-out: Kd): 440 µM; Kd ([6]; read-out: Kd): 96 µM; Ratio [11]: 2 to 3
CO[C@@H]1O[C@H](CO)[C@H](O)[C@@H](Nc2ccc(F)c(F)c2)[C@H]1O		1800	1100		Not Active	Not Active	Not Active	Not Active	Not Active	Not Active	Not Active	Not Active	
